Experimental data from article PMC4490784, “Compensatory induction of MYC expression by sustained CDK9 inhibition via a BRD4-dependent mechanism” (eLife, 2015).

Experiments:
Assay in all cases: KINOMEscan binding assay
BRK = biological target: T1, BRK (Homo sapiens, UniProt Q13882); settings: read-out: % Retention on Solid Support
T1 construct: purchased DiscoveRx KINOMEscan
Summary of the method: (§1)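 Two inhibitor concentrations (1 and 10 µM) were run. Binding to each kinase was assessed by competition with an active site-directed probe, covering upwards of 400 kinases.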

NEK1 = biological target: T2, NEK1 (Homo sapiens, UniProt Q96PY6); settings: read-out: % Retention on Solid Support
T2 construct: purchased DiscoveRx KINOMEscan
Summary of the method: as §1

CTK = biological target: T3, CTK (Homo sapiens, UniProt P42679); settings: read-out: % Retention on Solid Support
T3 construct: purchased DiscoveRx KINOMEscan
T3 sequence (P42679 whole entry): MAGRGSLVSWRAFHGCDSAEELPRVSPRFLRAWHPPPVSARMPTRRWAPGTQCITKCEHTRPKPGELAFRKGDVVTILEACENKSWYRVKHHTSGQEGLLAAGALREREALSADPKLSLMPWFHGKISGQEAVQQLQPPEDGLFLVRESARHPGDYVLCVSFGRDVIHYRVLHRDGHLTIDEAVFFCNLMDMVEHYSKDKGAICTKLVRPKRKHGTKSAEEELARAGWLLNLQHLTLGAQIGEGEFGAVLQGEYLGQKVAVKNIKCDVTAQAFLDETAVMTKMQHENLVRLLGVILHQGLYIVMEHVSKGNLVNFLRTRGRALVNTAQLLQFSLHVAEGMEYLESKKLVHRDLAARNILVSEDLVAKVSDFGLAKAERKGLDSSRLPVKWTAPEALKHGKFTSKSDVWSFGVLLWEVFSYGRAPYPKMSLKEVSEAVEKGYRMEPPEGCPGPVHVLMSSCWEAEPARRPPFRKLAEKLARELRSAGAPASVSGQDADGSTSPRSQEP
Summary of the method: as §1

WEE1 = biological target: T4, WEE1 (Homo sapiens, UniProt P30291); settings: read-out: % Retention on Solid Support
T4 construct: purchased DiscoveRx KINOMEscan
T4 sequence (P30291 whole entry): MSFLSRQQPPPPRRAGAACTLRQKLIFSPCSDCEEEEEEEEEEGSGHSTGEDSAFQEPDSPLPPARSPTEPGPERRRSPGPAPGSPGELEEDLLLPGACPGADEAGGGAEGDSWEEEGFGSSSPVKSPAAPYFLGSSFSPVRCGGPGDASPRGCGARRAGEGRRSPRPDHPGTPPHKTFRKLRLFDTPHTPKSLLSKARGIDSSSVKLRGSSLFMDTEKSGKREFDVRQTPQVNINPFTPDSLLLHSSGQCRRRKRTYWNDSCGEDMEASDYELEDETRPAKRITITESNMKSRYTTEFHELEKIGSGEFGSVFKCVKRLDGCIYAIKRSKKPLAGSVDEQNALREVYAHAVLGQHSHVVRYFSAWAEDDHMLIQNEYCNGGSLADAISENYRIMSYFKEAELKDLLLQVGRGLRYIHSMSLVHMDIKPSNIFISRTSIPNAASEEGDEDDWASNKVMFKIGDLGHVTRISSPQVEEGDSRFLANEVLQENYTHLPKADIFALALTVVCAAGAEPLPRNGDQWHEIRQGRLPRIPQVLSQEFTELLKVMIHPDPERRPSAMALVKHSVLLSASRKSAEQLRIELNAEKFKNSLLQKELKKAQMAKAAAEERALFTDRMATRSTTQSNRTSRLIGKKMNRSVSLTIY
Summary of the method: as §1

MYLK = biological target: T5, MYLK (Homo sapiens, UniProt Q15746); settings: read-out: % Retention on Solid Support
T5 construct: purchased DiscoveRx KINOMEscan
Summary of the method: as §1

TAOK2 = biological target: T6, TAOK2 (Homo sapiens, UniProt Q9UL54); settings: read-out: % Retention on Solid Support
T6 construct: purchased DiscoveRx KINOMEscan
Summary of the method: as §1

ZAP70 = biological target: T7, ZAP70 (Homo sapiens, UniProt P43403); settings: read-out: % Retention on Solid Support
T7 construct: purchased DiscoveRx KINOMEscan
T7 sequence (P43403 1-619): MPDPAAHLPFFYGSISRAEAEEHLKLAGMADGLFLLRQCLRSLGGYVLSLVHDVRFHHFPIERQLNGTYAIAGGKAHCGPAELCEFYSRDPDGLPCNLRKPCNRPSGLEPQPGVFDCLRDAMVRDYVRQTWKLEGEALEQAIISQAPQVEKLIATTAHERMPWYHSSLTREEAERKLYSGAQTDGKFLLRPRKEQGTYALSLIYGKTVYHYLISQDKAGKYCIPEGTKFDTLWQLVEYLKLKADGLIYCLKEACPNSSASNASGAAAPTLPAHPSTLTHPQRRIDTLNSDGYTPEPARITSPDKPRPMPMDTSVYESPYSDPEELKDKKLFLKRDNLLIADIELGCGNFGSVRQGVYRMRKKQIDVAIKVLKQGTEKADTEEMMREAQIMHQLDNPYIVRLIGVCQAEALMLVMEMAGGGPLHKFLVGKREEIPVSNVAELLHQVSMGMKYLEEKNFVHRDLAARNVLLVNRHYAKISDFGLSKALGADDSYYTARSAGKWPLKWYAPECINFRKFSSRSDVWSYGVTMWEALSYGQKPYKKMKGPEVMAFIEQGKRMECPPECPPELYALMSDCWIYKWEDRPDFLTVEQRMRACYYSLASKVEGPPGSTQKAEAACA
Summary of the method: as §1

PIK3CA(I800L) = biological target: T8, PIK3CA(I800L) (Homo sapiens, UniProt P42336, I800L); settings: 1 µM i-CDK9; read-out: % Retention on Solid Support
T8 construct: purchased DiscoveRx KINOMEscan
Summary of the method: as §1

FLT3(ITD) = test system: FLT3(ITD)
Summary of the method: as §1

GRK1 = biological target: T9, GRK1 (Homo sapiens, UniProt Q15835); settings: read-out: % Retention on Solid Support
T9 construct: purchased DiscoveRx KINOMEscan
Summary of the method: as §1

HIPK3 = biological target: T10, HIPK3 (Homo sapiens, UniProt Q9H422); settings: read-out: % Retention on Solid Support
T10 construct: purchased DiscoveRx KINOMEscan
Summary of the method: as §1

CAMK2A = biological target: T11, CAMK2A (Homo sapiens, UniProt Q9UQM7); settings: read-out: % Retention on Solid Support
T11 construct: purchased DiscoveRx KINOMEscan
Summary of the method: as §1

BMX = biological target: T12, BMX (Homo sapiens, UniProt P51813); settings: read-out: % Retention on Solid Support
T12 construct: purchased DiscoveRx KINOMEscan
T12 sequence (P51813 whole entry): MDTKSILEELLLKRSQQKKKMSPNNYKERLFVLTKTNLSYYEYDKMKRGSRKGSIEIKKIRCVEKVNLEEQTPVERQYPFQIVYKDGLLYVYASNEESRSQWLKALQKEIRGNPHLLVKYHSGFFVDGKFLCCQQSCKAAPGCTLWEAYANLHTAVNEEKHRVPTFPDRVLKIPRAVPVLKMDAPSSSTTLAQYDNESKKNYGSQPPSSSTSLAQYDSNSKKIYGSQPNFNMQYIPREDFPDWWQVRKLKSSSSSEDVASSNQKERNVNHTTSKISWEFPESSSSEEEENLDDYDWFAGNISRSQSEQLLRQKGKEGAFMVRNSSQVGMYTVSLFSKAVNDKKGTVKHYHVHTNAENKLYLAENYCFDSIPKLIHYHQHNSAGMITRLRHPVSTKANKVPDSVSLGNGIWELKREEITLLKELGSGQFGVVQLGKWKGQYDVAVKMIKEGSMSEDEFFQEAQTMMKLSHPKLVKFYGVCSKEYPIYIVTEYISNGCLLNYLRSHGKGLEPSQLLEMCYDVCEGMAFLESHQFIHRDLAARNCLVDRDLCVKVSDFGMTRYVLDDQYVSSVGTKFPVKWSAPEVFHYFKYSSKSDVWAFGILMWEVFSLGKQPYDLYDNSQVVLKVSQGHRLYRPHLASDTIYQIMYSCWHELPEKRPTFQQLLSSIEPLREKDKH
Summary of the method: as §1

IRAK1 = biological target: T13, IRAK1 (Homo sapiens, UniProt P51617); settings: read-out: % Retention on Solid Support
T13 construct: purchased DiscoveRx KINOMEscan
Summary of the method: as §1

CLK3 = biological target: T14, CLK3 (Homo sapiens, UniProt P49761); settings: read-out: % Retention on Solid Support
T14 construct: purchased DiscoveRx KINOMEscan
T14 sequence (P49761 whole entry): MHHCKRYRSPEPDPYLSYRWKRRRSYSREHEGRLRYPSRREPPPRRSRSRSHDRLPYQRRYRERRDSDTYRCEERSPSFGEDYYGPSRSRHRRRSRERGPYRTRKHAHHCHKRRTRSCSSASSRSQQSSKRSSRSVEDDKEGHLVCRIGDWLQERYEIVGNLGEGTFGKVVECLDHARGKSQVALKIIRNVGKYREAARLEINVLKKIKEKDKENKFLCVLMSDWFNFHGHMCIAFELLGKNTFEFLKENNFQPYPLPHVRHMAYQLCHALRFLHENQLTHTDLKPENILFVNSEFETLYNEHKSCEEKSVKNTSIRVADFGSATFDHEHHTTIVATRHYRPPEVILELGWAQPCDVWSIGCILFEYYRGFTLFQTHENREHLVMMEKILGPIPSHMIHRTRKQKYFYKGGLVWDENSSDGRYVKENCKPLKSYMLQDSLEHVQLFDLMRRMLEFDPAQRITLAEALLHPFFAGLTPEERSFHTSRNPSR
Summary of the method: as §1

BRSK2 = biological target: T15, BRSK2 (Homo sapiens, UniProt Q8IWQ3); settings: read-out: % Retention on Solid Support
T15 construct: purchased DiscoveRx KINOMEscan
T15 sequence (Q8IWQ3 whole entry): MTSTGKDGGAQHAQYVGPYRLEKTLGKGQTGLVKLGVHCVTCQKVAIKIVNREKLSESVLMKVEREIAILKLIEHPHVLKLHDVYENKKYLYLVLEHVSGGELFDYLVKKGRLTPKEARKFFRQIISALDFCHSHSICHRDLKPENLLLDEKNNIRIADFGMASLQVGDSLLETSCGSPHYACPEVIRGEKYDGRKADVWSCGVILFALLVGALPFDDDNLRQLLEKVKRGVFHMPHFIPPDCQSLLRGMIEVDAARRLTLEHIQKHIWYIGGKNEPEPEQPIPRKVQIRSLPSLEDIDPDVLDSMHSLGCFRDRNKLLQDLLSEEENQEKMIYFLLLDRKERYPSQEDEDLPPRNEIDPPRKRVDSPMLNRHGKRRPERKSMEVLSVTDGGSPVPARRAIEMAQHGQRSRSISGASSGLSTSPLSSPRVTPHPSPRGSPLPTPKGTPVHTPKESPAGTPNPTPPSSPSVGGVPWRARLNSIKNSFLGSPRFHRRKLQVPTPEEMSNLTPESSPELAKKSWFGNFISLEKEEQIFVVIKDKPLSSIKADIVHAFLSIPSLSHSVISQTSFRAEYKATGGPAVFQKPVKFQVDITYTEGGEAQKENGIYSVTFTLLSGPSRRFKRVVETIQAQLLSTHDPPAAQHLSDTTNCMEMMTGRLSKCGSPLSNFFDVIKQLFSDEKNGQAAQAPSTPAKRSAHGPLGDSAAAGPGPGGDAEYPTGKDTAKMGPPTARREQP
Summary of the method: as §1

CAMK2D = biological target: T16, CAMK2D (Homo sapiens, UniProt Q13557); settings: read-out: % Retention on Solid Support
T16 construct: purchased DiscoveRx KINOMEscan
Summary of the method: as §1

PDGFRB = biological target: T17, PDGFRB (Homo sapiens, UniProt P09619); settings: read-out: % Retention on Solid Support
T17 construct: purchased DiscoveRx KINOMEscan
Summary of the method: as §1

TRPM6 = biological target: T18, TRPM6 (Homo sapiens, UniProt Q9BX84); settings: 1 µM i-CDK9; read-out: % Retention on Solid Support
T18 construct: purchased DiscoveRx KINOMEscan
Summary of the method: as §1

TBK1 = biological target: T19, TBK1 (Homo sapiens, UniProt Q9UHD2); settings: read-out: % Retention on Solid Support
T19 construct: purchased DiscoveRx KINOMEscan
T19 sequence (Q9UHD2 whole entry): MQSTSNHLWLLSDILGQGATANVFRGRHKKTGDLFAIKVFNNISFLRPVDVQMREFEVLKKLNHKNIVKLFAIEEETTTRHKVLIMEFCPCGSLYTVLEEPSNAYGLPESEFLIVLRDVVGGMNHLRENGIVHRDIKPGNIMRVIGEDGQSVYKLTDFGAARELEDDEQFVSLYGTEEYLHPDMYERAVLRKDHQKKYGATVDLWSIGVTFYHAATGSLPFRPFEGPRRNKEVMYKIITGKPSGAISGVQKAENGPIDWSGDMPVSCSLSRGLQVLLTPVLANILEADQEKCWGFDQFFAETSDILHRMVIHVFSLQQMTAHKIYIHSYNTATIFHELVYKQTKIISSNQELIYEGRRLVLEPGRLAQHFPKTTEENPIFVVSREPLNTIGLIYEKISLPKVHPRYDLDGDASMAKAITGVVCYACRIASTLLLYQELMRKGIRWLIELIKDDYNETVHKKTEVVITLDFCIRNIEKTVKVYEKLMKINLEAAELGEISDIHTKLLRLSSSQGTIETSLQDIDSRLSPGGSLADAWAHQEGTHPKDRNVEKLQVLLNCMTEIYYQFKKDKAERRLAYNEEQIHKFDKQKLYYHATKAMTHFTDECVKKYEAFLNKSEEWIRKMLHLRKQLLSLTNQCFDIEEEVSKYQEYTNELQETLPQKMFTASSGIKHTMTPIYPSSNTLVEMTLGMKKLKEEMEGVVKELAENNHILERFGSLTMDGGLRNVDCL
Summary of the method: as §1

PRKCQ = biological target: T20, PRKCQ (Homo sapiens, UniProt Q04759); settings: read-out: % Retention on Solid Support
T20 construct: purchased DiscoveRx KINOMEscan
T20 sequence (Q04759 whole entry): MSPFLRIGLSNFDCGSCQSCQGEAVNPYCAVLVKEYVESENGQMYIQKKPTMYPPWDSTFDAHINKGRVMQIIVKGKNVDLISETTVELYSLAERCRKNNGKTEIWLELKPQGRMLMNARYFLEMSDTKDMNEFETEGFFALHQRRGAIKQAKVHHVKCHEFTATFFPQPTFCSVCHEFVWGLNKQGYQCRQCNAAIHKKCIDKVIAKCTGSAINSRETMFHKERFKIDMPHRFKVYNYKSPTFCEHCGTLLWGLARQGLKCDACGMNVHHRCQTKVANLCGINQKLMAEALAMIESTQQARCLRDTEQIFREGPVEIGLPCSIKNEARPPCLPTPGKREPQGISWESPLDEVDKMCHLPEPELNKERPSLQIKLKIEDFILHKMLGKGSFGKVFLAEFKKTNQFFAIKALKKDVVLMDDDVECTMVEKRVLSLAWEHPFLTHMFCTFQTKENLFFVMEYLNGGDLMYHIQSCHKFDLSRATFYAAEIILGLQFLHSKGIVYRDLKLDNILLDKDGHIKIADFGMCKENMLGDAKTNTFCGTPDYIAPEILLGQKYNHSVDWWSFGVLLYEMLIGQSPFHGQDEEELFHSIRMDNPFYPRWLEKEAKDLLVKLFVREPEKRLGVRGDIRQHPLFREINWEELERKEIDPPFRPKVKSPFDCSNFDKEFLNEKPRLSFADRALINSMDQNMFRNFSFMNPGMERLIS
Summary of the method: as §1

DRAK2 = biological target: T21, DRAK2 (Homo sapiens, UniProt O94768); settings: read-out: % Retention on Solid Support
T21 construct: purchased DiscoveRx KINOMEscan
T21 sequence (O94768 whole entry): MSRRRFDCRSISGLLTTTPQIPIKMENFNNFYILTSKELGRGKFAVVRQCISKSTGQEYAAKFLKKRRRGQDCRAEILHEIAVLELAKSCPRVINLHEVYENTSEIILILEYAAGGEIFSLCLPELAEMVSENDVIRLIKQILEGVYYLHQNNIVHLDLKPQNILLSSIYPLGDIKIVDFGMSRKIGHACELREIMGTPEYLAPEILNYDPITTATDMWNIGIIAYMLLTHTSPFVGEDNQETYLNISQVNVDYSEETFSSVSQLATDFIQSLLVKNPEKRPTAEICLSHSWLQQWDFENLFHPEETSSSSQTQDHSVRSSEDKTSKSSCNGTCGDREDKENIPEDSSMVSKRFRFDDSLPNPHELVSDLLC
Summary of the method: as §1

DDR2 = biological target: T22, DDR2 (Homo sapiens, UniProt Q16832); settings: read-out: % Retention on Solid Support
T22 construct: purchased DiscoveRx KINOMEscan
Summary of the method: as §1

EPHA1 = biological target: T23, EPHA1 (Homo sapiens, UniProt P21709); settings: read-out: % Retention on Solid Support
T23 construct: purchased DiscoveRx KINOMEscan
Summary of the method: as §1

Structure (SMILES): N[C@H]1CC[C@H](Nc2cc(-c3cccc(NCc4cccc(F)c4)n3)c(Cl)cn2)CC1 [i-CDK9, N2′-(trans-4-aminocyclohexyl)-5′-chloro-N6-(3-fluorobenzyl)-2,4′-bipyridine-2′,6-diamine]
- remaining binding at 1 µM (BRK; 1 µM i-CDK9): 70%
- remaining binding at 10 µM (BRK; 10 µM i-CDK9): 100%
- remaining binding at 1 µM (NEK1; 1 µM i-CDK9): 70%
- remaining binding at 10 µM (NEK1; 10 µM i-CDK9): 100%
- remaining binding at 1 µM (CTK; 1 µM i-CDK9): 75%
- remaining binding at 10 µM (CTK; 10 µM i-CDK9): 100%
- remaining binding at 1 µM (WEE1; 1 µM i-CDK9): 100%
- remaining binding at 10 µM (WEE1; 10 µM i-CDK9): 100%
- remaining binding at 1 µM (MYLK; 1 µM i-CDK9): 100%
- remaining binding at 10 µM (MYLK; 10 µM i-CDK9): 100%
- remaining binding at 1 µM (TAOK2; 1 µM i-CDK9): 82%
- remaining binding at 10 µM (TAOK2; 10 µM i-CDK9): 5.8%
- remaining binding at 1 µM (ZAP70; 1 µM i-CDK9): 1.6%
- remaining binding at 10 µM (ZAP70; 10 µM i-CDK9): 96%
- remaining binding at 1 µM (PIK3CA(I800L)): 100%
- % Retention on Solid Support (FLT3(ITD); 1 µM i-CDK9): 100%
- % Retention on Solid Support (FLT3(ITD); 10 µM i-CDK9): 72%
- remaining binding at 1 µM (GRK1; 1 µM i-CDK9): 95%
- remaining binding at 10 µM (GRK1; 10 µM i-CDK9): 100%
- remaining binding at 1 µM (HIPK3; 1 µM i-CDK9): 100%
- remaining binding at 10 µM (HIPK3; 10 µM i-CDK9): 89%
- remaining binding at 1 µM (CAMK2A; 1 µM i-CDK9): 91%
- remaining binding at 10 µM (CAMK2A; 10 µM i-CDK9): 81%
- remaining binding at 1 µM (BMX; 1 µM i-CDK9): 96%
- remaining binding at 10 µM (BMX; 10 µM i-CDK9): 81%
- remaining binding at 1 µM (IRAK1; 1 µM i-CDK9): 100%
- remaining binding at 10 µM (IRAK1; 10 µM i-CDK9): 73%
- remaining binding at 1 µM (CLK3; 1 µM i-CDK9): 88%
- remaining binding at 10 µM (CLK3; 10 µM i-CDK9): 25%
- remaining binding at 1 µM (BRSK2; 1 µM i-CDK9): 93%
- remaining binding at 10 µM (BRSK2; 10 µM i-CDK9): 88%
- remaining binding at 1 µM (CAMK2D; 1 µM i-CDK9): 100%
- remaining binding at 10 µM (CAMK2D; 10 µM i-CDK9): 100%
- remaining binding at 1 µM (PDGFRB; 1 µM i-CDK9): 74%
- remaining binding at 10 µM (PDGFRB; 10 µM i-CDK9): 100%
- remaining binding at 1 µM (TRPM6): 92%
- remaining binding at 1 µM (TBK1; 1 µM i-CDK9): 100%
- remaining binding at 10 µM (TBK1; 10 µM i-CDK9): 100%
- remaining binding at 1 µM (PRKCQ; 1 µM i-CDK9): 100%
- remaining binding at 10 µM (PRKCQ; 10 µM i-CDK9): 88%
- remaining binding at 1 µM (DRAK2; 1 µM i-CDK9): 82%
- remaining binding at 10 µM (DRAK2; 10 µM i-CDK9): 72%
- remaining binding at 1 µM (DDR2; 1 µM i-CDK9): 100%
- remaining binding at 10 µM (DDR2; 10 µM i-CDK9): 92%
- remaining binding at 1 µM (EPHA1; 1 µM i-CDK9): 99%
- remaining binding at 10 µM (EPHA1; 10 µM i-CDK9): 100%
